Laboratory results: patent US6337182B1, “Method for the quantitative determination of DNA sequences” (Dade Behring Marburg GmbH, priority 1990, dated 2002)
Where “and” joins values, the source holds several entries; their conditions need not be identical. Equal entries are not always repeated.

System: TaqI-endonuclease site TCGA (2508-2511) of exon 3 of the c-Ha-ras gene
Assay: Detection of ethylnitrosourea induced mutations in the TaqI site of c-Ha-ras exon 3 in cultured human fibroblasts (selective PCR, plaque hybridization)
Assay type: cell-based
Method: Monolayer cultures of human foreskin fibroblasts 3229 (other cell lines of the same origin work equally well) are treated with the carcinogen ethylnitrosourea (ENU, 2mM) in DMSO or sham-treated with DMSO only and harvested 3 days later. Total DNA is extracted and digested exhaustively with BamHI yielding a 6.6 Kb fragment containing the c-Ha-ras gene. The digestion mixture is separated on a 1% agarose gel and the DNA in the region from 6.0-7.0 Kb eluted in a “Biotrap” apparatus as described in Example I. The completeness of the BamHI digestion and the recovery of the c-Ha-ras sequences from the gel are monitored by Southern-blotting with a 6.6 Kb c-Ha-ras probe. “Biotrap” purified DNA (6.0-7.0 Kb, corresponding to 25 μg BamHI digested genomic DNA) is then exhaustively digested with TaqI endonuclease and a fragment containing the TaqI site 2508-2511 (TCGA) of the c-Ha-ras gene amplified as described below and illustrated in FIG. 2. At the outset of the amplification 10 copies of an authentic “standard” sequence are added which contain the sequence ACGT at residues 2508-2511 (and a G-instead of the C residue at position 2503), but are otherwise identical to wt c-Ha-ras.
The digested DNA was amplified, utilizing a “nested primer approach” to selectively amplify only DNA containing a mutated TaqI restriction site.
1. Amplification Cycles 1-15. The cycles 1-15 were conducted with the outer primers (see FIG. 2) yielding a 237 bp fragment. Each cycle consists of a melting temperature of 81° C. (1.1 min), an annealing temperature of 55° C. (0.8 min), and an extension temperature of 65° C. (0.3 min). The initial contents of each amplification tube are as follows: 2.5 μl of “digested DNA” (i.e. TaqI digested 6.0-7.0 Kb BamHI fragment population described above); 0.75 μg of each outer primer (primers 1 and 2, see FIG. 2); 25 mM each of dATP, dCTP, dGTP and dTTP; 21% DMSO; 66.6 mM Tris-HCl, pH 8.8, 16.6 mM ammonium sulfate; 6.7 mM magnesium chloride; 10 mM 2-merc:aptoethanol, 6.7 μM EDTA, and 1.5 units Taq polymerase, in a total volume of 25 μl. To prevent evaporation during temperature cycling, an overlay of 3-4 drops of paraffin oil is added to each tube. (Note: Taq polymerase is added to the tubes after an initial melting period of 3 minutes at 92° C. Subsequently, one μl additions of a TaqI endonuclease-containing TaqI Mix are made to the appropriate amplification tubes during the annealing periods of cycles 1, 3, 5, 7 , 9, 11, 13 and 15). The TaqI mix contains 25 mM each of DATP, dCTP, dGTP and dTTP; 21% DMSO; 66.6 mM Tris-HC1, pH 8.8; 16.6 mM ammonium sulfate; 6.7 mM magnesium chloride; 10 mM 2-mercaptoethanol; 6.7 μm EDTA; 0.12 units/μl Taq polymerase and 1.2 units/μl TaqI endonuclease.
Amplification cycles 16-25 are conducted at a higher melting temprature (91° C.) and a lower DMSO concentration (12%) with the outer primers (primers 1 and 2, see FIG. 2). Each cycle consists of a melting temperature of 91° C. (0.8 min) and an annealing temperature of 57° C. (0.4 min). After the 15th cycle, the DMSO concentration is reduced to 12% by transferring 16 μl of each amplification solution to new tubes which contain 11 μl of a DMSO-free mixture consisting of 229 ng of each outer primer/11 μl; 25 mM each of dATP, dCTP, dGTP and dTTP; 66.6 mM Tris-HCl, pH 8.8; 16.6 mM ammonium sulfate; 6.7 mM magnesium chloride, 10 mM 2.-mercaptoethanol and 6.7 μM EDTA. Paraffin oil (3 drops) is added to each tube and the 16th cycle begun with an initial melting period of 3 min at 92° C., after which 1.5 units of Taq polymerase is added to each tube.
Amplification cycles 26-41 are conducted with the inner primers (primers 3 and 4, see FIG. 2), which contain “EcoRI tails” to facilitate later ligation into phage arms. With the chosen inner primers a 184 bp fragment is synthesized. In order to reduce competition between outer and inner primers, the outer primer concentration is reduced by a factor of 121 relative to the inner primer concentration. […]

[1] = mean of 4 Petri dishes, 2 mM ethylnitrosourea, human fibroblasts (3229)

CCN(N=O)C(N)=O [ethylnitrosourea]
copies of mutated sequence TCTA in the original DNA sample (25 μg DNA, 10 copies of standard gave 17% plaques, mutation 7%): 6 copies
plaques containing wt sequence DNA or any of the remaining 11 possible base-pair mutations (2 mM ethylnitrosourea, human fibroblasts (3229)): No plaques were detected
frequency of induced base-pair mutation TCGA→TCTA at sequence 2508-2511 of the human c-Ha-ras gene (2 mM, human fibroblasts 3229, estimated against 10 copies of standard sequence): ~7.5 mutations in 10^7 c-Ha-ras genes
mutation frequency (TCGA→TCTA, 2 mM, human fibroblasts 3229, 25 μg DNA): ~7.5×10^−7 per c-Ha-ras gene
plaques containing mutated sequence TCTA, mean [1]: 13.2
plaques containing mutated sequence TCTA, mean share [1]: (7%)
plaques containing mutated sequence TCTA (number of plaques per Petri dish, DNA from 3 × 10^6 human fibroblasts (3229) treated with 2 mM ethylnitrosourea, harvested 3 days later): 16 and 13 and 12
